Source: ChEMBL document CHEMBL1157447, “Discovery and biological evaluation of novel alpha-glucosidase inhibitors with in vivo antidiabetic effect” (2008)

Legend:
[1] = tested on: Saccharomyces cerevisiae; assay: Inhibition of alpha glucosidase from baker's yeast at 50 uM
[2] = tested on: Rattus norvegicus; assay: Antidiabetic activity in po dosed Streptozotocin induced diabetic Sprague-Dawley rat assessed as decrease in serum glucose level after 60 mins; type: functional; parameters: concentration or dose not given beside the values
[3] = tested on: Rattus norvegicus; assay: Antidiabetic activity in po dosed Streptozotocin induced diabetic Sprague-Dawley rat assessed as decrease in serum glucose level after 120 mins; type: functional; parameters: scale not given: the % may be the effect or the level left

Row | Compound | inhibition [1] [%] | Activity [2] [%] | Activity [3] [%]
1 | CCc1ccc(N2C(=O)NC(=O)/C(=C\c3cccn3CCOc3cccc(C)c3)C2=O)cc1 | 86 | 20 | –
2 | N#C/C(=C\Nc1cccc(F)c1)c1nc(-c2cc3ccccc3oc2=O)cs1 | 75.2 | 20 | –
3 | Cc1ccc(Nc2nc(N)nc(COc3cccc4cccnc34)n2)cc1 | 78.9 | 20 | –
4 | C[C@H]1O[C@H](O[C@H]2[C@H](O)[C@@H](O)[C@@H](OC3[C@@H](CO)OC(O)[C@H](O)[C@H]3O)O[C@@H]2CO)[C@H](O)[C@@H](O)[C@@H]1N[C@H]1C=C(CO)[C@@H](O)[C@H](O)[C@H]1O (single isomer, unassigned) | 88.1 | – | –
5 | COc1ccc(N2C(=O)NC(=O)/C(=C\c3cccn3CCOc3cccc(C)c3)C2=O)cc1Cl | 88.7 | 5 | 23
